What was measured:
Assay type in all cases: in vivo, mouse
[1] = tested on: corpus cavernosum strips from SCD mice; assay: Concentration-response relaxation curves to ACh and SNP in cavernosal strips pre-contracted with phenylephrine
Method: (§1) All mice strains were originally purchased from Jackson Laboratories (Bar Harbor, ME). Characterization and breeding were performed at the Multidisciplinary Center for the Investigation of Biological Science in Laboratory Animals of University of Campinas. C57BL/6 male mice (wild-type, WT) and Berkeley transgenic SCD mice, aged 3 to 4 months-old, were used. Mice were housed three per cage on a 12 h light-dark cycle. SCD male mice were treated with treatment with haptoglobin (400 mg/kg, subcutaneous) or vehicle of Monday, Wednesday and Friday for a period of 1 month (24).
(§2) Strips of mouse corpus cavernosum were mounted in a 7-ml organ system containing Krebs solution at 37° C., continuously bubbled with a mixture of 95% O2 and 5% CO2 (pH 7.4), and suspended between two metal hooks. One hook was connected to a force transducer and the other acted as a fixed attachment point. Tissues were allowed to equilibrate for 60 min under a resting tension of 2.5 mN. Isometric force was recorded using a PowerLab 400™ data acquisition system (Software LabChart, version 7.0, AD Instrument, MA, USA). Cumulative concentration-response curves were constructed for the muscarinic agonist acetylcholine (ACh; 10^−9 to 10^−5 M) and sodium nitroprusside (SNP; 10^−8 to 10^−4 M) in cavernosal strips pre-contracted with phenylephrine (10^−5 M). Cumulative concentration-response curves to the contractile agent phenylephrine (α1-adrenergic receptor agonist, 10^−8 to 3×10^−4 M) and KCl (3×10^−4 to 3×10^−1 M) were obtained in cavernosal strips. Nonlinear regression analysis to determine the pEC50 was carried out using GraphPad Prism (GraphPad Software, San Diego, CA, USA).

[2] = tested on: corpus cavernosum strips from SCD mice; assay: Electrical-field stimulation (EFS)-induced nitrergic relaxations of cavernosal strips; details: 2-32 Hz, guanethidine and atropine pretreated strips, haptoglobin 400 mg/kg s.c. 1 month
Method: as §1
EFS was applied on cavernosal strips placed between two platinum ring electrodes connected to a Grass S88 stimulator (Astro-Med Industrial Park, RI, USA). EFS was conducted at 50 V, 1 ms pulse width and trains of stimuli lasting 10 sec at varying frequencies. In order to study the nitrergic cavernosal relaxations, tissues were pretreated with guanethidine (3×10^−5 M; to deplete the catecholamine stores of adrenergic fibers) and atropine (10^−6 M; to produce muscarinic antagonism) for 30 minutes prior to pre-contraction with phenylephrine (10^−5 M). When a stable contraction level was attained, a series of EFS-induced relaxations were constructed (2-32 Hz).

[3] = tested on: corpus cavernosum strips from SCD mice; assay: Concentration-response contraction curves to phenylephrine and KCl in cavernosal strips; details: SCD mice treated with haptoglobin 400 mg/kg s.c. 1 month, mean ± SEM
Method: as §1
as §2, with “Cumulative concentration-response curves to the contractile agent phenylephrine (α1-adrenergic receptor agonist, 10^−8 to 3×10^−4 M) and KCl (3×10^−4 to 3×10^−1 M) were obtained in cavernosal strips. Nonlinear regression analysis to determine the pEC50 was carried out using GraphPad Prism (GraphPad Software, San Diego, CA, USA).” left out

p-eNOS (Ser-1177) = assay: Western blot of penis homogenates, p-eNOS (Ser-1177); details: SCD mice, haptoglobin 400 mg/kg s.c. 1 month; normalized to eNOS; P<0.05
Method: as §1
(§3) Corpus cavernosum tissue was homogenized in lysis buffer and centrifuged at 12,000 g for 20 minutes at 4° C. Homogenates containing […] total proteins were run on 4-20% Tris-HCl gels (Bio-Rad Laboratories, Hercules, CA, USA) and transferred to a nitrocellulose membrane. Nonfat dry milk 5% (Bio-Rad) in Tris-buffered saline/Tween was used for 1 hour at 24° C. to block nonspecific binding sites. […] Densitometry was analyzed using the Image J Software (National Institute of Health, Bethesda-MD, USA). Quantified densitometry results were normalized to β-actin. Quantified densitometry results of eNOS phosphorylated at Ser1177 were normalized to total eNOS.

eNOS = assay: Western blot of penis homogenates, eNOS; details: SCD mice, haptoglobin 400 mg/kg s.c. 1 month; normalized to β-actin; P<0.05
Method: as §1, §3

nNOS = assay: Western blot of penis homogenates, nNOS; details: SCD mice, haptoglobin 400 mg/kg s.c. 1 month; normalized to β-actin
Method: as §1, §3

PDE5 = assay: Western blot of penis homogenates, PDE5; details: SCD mice, haptoglobin 400 mg/kg s.c. 1 month, vs SCD-vehicle
Method: as §1, §3

ROCK2 = assay: Western blot of penis homogenates, ROCK2; details: SCD mice, haptoglobin 400 mg/kg s.c. 1 month; normalized to β-actin
Method: as §1, §3

ROCK1 = assay: Western blot of penis homogenates, ROCK1; details: SCD mice, haptoglobin 400 mg/kg s.c. 1 month; compared to WT-vehicle
Method: as §1, §3

[4] = tested on: NADPH oxidase subunit gp91phox; assay: Western blot of penis homogenates, gp91phox; details: SCD mice, haptoglobin 400 mg/kg s.c. 1 month; normalized to β-actin
Method: as §1, §3

3-nitrotyrosine = assay: Western blot of penis homogenates, 3-nitrotyrosine; details: SCD mice, haptoglobin 400 mg/kg s.c. 1 month, vs SCD-vehicle
Method: as §1, §3

4-HNE = assay: Western blot of penis homogenates, 4-HNE; details: SCD mice, haptoglobin 400 mg/kg s.c. 1 month, vs SCD-vehicle
Method: as §1, §3

cGMP = assay: Determination of basal cGMP levels in penis (enzyme immunoassay); details: SCD mice, haptoglobin treatment, vs SCD-vehicle, P<0.05
Method: as §1
Quantitative assays for cGMP were performed using a commercial enzyme immunoassay kit (Cayman Chemical Cyclic GMP EIA kit, Ann Arbor, MI, USA). For penile cGMP content, frozen penile tissue was homogenized in 5% trichloroacetic acid and centrifuged. TCA was extracted from the supernatant with three washes of water-saturated ether. cGMP was expressed as pmol/mg tissue.

Effect of treatment on raised SNP pEC50 value ([1]; SCD mice, haptoglobin 400 mg/kg s.c., P<0.05): reversed | Effect on potency (pEC50) for ACh among the groups ([1]; WT-vehicle, SCD-vehicle, SCD-haptoglobin): No significant differences | pEC50 of ACh relaxation curve, SCD-Haptoglobin ([1]; agonist ACh, cavernosal strips from SCD mice treated with haptoglobin 400 mg/kg s.c. Mon/Wed/Fri for 1 month, mean ± SEM): 7.12 | pEC50 of SNP relaxation curve, SCD-Haptoglobin ([1]; agonist SNP, cavernosal strips from SCD mice treated with haptoglobin 400 mg/kg s.c. Mon/Wed/Fri for 1 month, mean ± SEM): 6.08 | Increase of basal cGMP levels in penis (cGMP): approximately 72%
Substance: Haptoglobin: Human haptoglobin (Hp) solution, a kind gift from CSL Behring; plasma glycoprotein that binds free hemoglobin
Effect of treatment on Emax produced by SNP ([1]; SCD mice, haptoglobin 400 mg/kg s.c., vs SCD-vehicle): reduced | Effect of treatment on Emax values of ACh ([1]; SCD mice, haptoglobin 400 mg/kg s.c., vs SCD-vehicle, P<0.05): reduced | Emax (%) of ACh relaxation curve, SCD-Haptoglobin ([1]; agonist ACh, relative to phenylephrine (10^-5 M) contraction = 100%, SCD mice, haptoglobin 400 mg/kg s.c. 3x/week, 1 month, mean ± SEM): 42 ± 6 % | Emax (%) of SNP relaxation curve, SCD-Haptoglobin ([1]; agonist SNP, relative to phenylephrine (10^-5 M) contraction = 100%, SCD mice, haptoglobin 400 mg/kg s.c. 3x/week, 1 month, mean ± SEM): 78 ± 4% | Effect of treatment on EFS-induced relaxant responses [2]: reduced | Emax of KCl-induced contraction ([3]; KCl, receptor-independent): 0.30±0.07 mN | Emax of phenylephrine-induced contraction ([3]; phenylephrine 10^-8 to 3x10^-4 M): 0.79±0.11 mN | Protein level of p-eNOS (Ser-1177) in penis (p-eNOS (Ser-1177)): normalized | Protein level of eNOS in penis (eNOS): normalized | Protein expression of nNOS in penis (nNOS): not modified | Increase of protein level of PDE5 in penis (PDE5): approximately 52% | Protein levels of ROCK2 in penis (ROCK2): fully restored | Protein expression of ROCK1 in penis (ROCK1): not modified | Protein levels of gp91phox in penis [4]: fully restored | Reduction of protein level of 3-nitrotyrosine in penile tissue (3-nitrotyrosine): approximately 27% | Reduction of protein level of 4-HNE in penile tissue (4-HNE): ~28%

From patent US20260069657A1, “Haptoglobulin for Use in Treating or Preventing Exaggerated Erectile Response or Erectile Dysfunction” (CSL Behring AG, priority 2022, published 2026)
